The source of these data is patent US9468641B2, “Anti-inflammatory pharmaceutical composition comprising benzopyranyl tetracycles” (SEOUL NATIONAL UNIVERSITY R&DB FOUNDATION, priority 2014, dated 2016).

Test [1] concerns BV-2 cells. Kind of test: Griess assay of LPS-induced nitrite release in BV-2 cells. The test is classed as cell-based. The note with it: BV2 microglial cells, with or without LPS stimulation, FIG. 1. Here is the method: (§1) Cells increase the secretion of nitrite when induced to be inflammatory, but decrease the secretion of nitrite in the presence of an anti-inflammatory agent. […] Cells were treated with the compounds in the absence or presence of 100 ng/mL LPS (lipopolysaccharide). After 24 hrs of incubation, the cell culture media were reacted with Griess reagent (0.1% naphthylethylenediamine dihydrochloride and 1% sulfanilamide in 2% phosphoric acid). Absorbance was measured at 550 nm using a microplate reader, and the level of nitrite was estimated by comparison with a sodium nitrite standard curve.
Background: The Griess reaction detects nitrite, a stable product of nitric oxide.

The test system of test [2] is HAPI cells, Primary neuroblastoma, and RAW 264.7 cells. As to the kind of experiment: Griess assay of nitrite release in further cell lines. The following applies: LPS stimulation, FIG. 2. In kind it is cell-based. The protocol: as §1
The subject of test [3] is Il6, Il1b, Nos2, and Tnf. As to the kind of experiment: RT-PCR of pro-inflammatory mediator expression. In kind it is cell-based. The following applies: FIG. 3. The protocol:
For the analysis of gene expression, cells were incubated with ICM for 6 hrs in the presence of LPS (for control, cells were treated with DMSO in the absence of LPS). Total RNA was extracted from cells using TRIzol reagent. Reverse transcription was conducted using Superscript II (Invitrogen) and oligo (dT) primers. PCR amplification was conducted using a DNA Engine Tetrad Peltier Thermal Cycler (Bio-Rad) using specific primer sets (at an annealing temperature of 55-60° C. for 20-30 cycles). To analyze PCR products, each sample was electrophoresed on a 1% agarose gel. The Gapdh (Glyceraldehyde-3-phosphate dehydrogenase) gene was used as an internal control.

Test [4] has as its system proinflammatory cytokine TNFα. As to the kind of experiment: TNF-α ELISA of LPS-induced secretion. The note with it: FIG. 4. The test is classed as cell-based. The protocol: TNF-α secretion was measured using a TNF-α ELISA kit. Cells were treated with LPS in the absence or presence of ICM. After 24 hrs of incubation, the levels of TNF-α in the culture medium were measured with rat monoclonal anti-mouse TNF-α antibody as a capture antibody, and goat biotinylated polyclonal anti-mouse TNF-α antibody as a detection antibody. The biotinylated anti-TNF-α antibody was detected by sequential incubation with streptavidin-horseradish peroxidase conjugate. After incubation with a TMB substrate for 20 min, the color development was stopped by adding 2 N H2SO4. The absorbance was then read (450 nm and 540 nm) using a microplate reader.

The target in test [5] is T1, HMGB2 (Mus musculus, UniProt P30681).
T1 construct: endogenous in cells
T1 sequence (P30681 1-210): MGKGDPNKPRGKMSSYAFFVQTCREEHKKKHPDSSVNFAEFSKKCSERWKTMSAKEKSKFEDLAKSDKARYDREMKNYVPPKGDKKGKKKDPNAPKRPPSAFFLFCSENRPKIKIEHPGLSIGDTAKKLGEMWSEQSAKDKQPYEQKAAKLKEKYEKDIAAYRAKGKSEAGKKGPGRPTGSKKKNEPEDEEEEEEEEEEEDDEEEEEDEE
As to the kind of experiment: Griess assay in BV-2 cells with siRNA-mediated HMGB2 knockdown. In kind it is cell-based. The note with it: normalized to DMSO treatment, FIG. 16. Here is the method:
as §1
The siRNA transfection of BV-2 microglial cells was performed using Lipofectamine™ 2000 (Invitrogen). Forty-eight hours after transfection, the cells were used for further experiments.

In test [6] the target is T1, HMGB2. Kind of test: Subcellular fractionation and secretion analysis. The test is classed as cell-based. The following applies: LPS stimulation, western blotting, FIG. 17. The protocol: (§2) After exposure to ICM in the presence of LPS for 18 hrs, cells were lysed in subcellular fraction buffer (250 mM sucrose, 20 mM HEPES, 10 mM KCl, 1 mM EDTA, 1 mM EGTA, 1 mM DTT, and protease inhibitor cocktail), passed through a 25-Ga needle several times, and incubated on ice for 20 min. After centrifugation at 3,000 rpm for 5 min, the pellet and the supernatant were separated. The nuclear pellet was washed and then resuspended in standard lysis buffer with 10% glycerol and 0.1% SDS. The cytosolic fraction was obtained by centrifugation of the separated supernatant at 8,000 rpm for 15 min. The conditioned medium was collected for the analysis of the extracellular level of HMGBs and concentrated with Amicon Ultra 10K filters. The samples were analyzed by electrophoresis and western blotting.

Test [7] relates to HMGB2 and HMGB1. Kind of test: Immunoprecipitation analysis of post-translational modification. The test is classed as cell-based. The following applies: western blotting, FIG. 18. The protocol: as §2
For the analysis of post-translational modification levels on HMGB, immunoprecipitation was performed. […] The concentration of protein was measured by BCA assay, and the lysates were incubated overnight with an anti-phosphoserine antibody or an anti-acetylated lysine antibody at 4° C., followed by precipitation with a protein G immunoprecipitation kit (Sigma). Each of the samples was analyzed for HMGB2 level by western blot assays.
A general note: Immunoblotting shows a protein as a band on a membrane.

In test [8] the test system is LPS-mediated microglial activation. Kind of test: LPS neuroinflammation model. In kind it is in vivo, C57BL/6 mice. The following applies: cortex, substantia nigra, hippocampus; ICM 2 and 10 mg/kg, FIG. 19. The protocol: All experiments were performed on 11-week-old male C57BL/6 mice. The animals were divided into four experimental groups (group 1: control treated with vehicle; group 2: treated with ICM; group 3: treated with LPS and vehicle; and group 4: treated with LPS and ICM). ICM (2 or 10 mg per kg body weight) or vehicle (distilled water containing 5% DMSO and 40% polyethylene glycol) was administered once a day for 4 days. LPS was administered at a dose of 5 mg/kg on day 2 for a single challenge.
Mice were anesthetized with diethyl ether, transcardially perfused with cold saline, and then fixed with 4% paraformaldehyde diluted in 0.1 M PBS. Brains or lumbar spinal cords were fixed using 4% PFA for 3 days and then cryoprotected with a 30% sucrose solution for 3 days. Three animals were used per experimental group. The fixed brains and spinal cords were embedded in OCT compound for frozen sectioning and then sectioned coronally at 20 μm. To detect LPS-induced microglial activation, each section was incubated with a rabbit anti-Iba-1 antibody and FluoroMyelin. The sections were visualized directly or incubated with Cy3-conjugated anti-rabbit IgG antibody. Also, the sections were stained with hematoxylin and eosin to assess inflammatory lesions.

Test [9] has as its system EAE model. Kind of test: Experimental auto-immune encephalitis (EAE) model. The test is classed as in vivo, C57BL/6 mice.

Take `CC1(C)Oc2cc(O)ccc2C2C1=CCn1c(=O)n(-c3ccccc3)c(=O)n12` (stereo not shown) [ICM]: in test [1], the LPS-induced nitrite release result is “efficiently blocked LPS-induced nitrite release from BV2 microglial cells in a dose-dependent manner”. Besides, the nitrite release result in test [2] is “inhibit nitrite release in a broad range of cell lines”. For the same compound, the “LPS-induced expression of pro-inflammatory genes” value in [3] is recorded as “suppressed the LPS-induced expression of pro-inflammatory genes in a dose-dependent manner”. Further, the “LPS-induced secretion of TNFα” value in test [4] was “suppressed LPS-induced secretion of the proinflammatory cytokine”. Further, in [5], the “anti-inflammatory effect on LPS-induced nitrite release under HMGB2 knockdown” value was “anti-inflammatory effect of ICM was decreased by HMGB2 knockdown”. In test [6], the “translocation of HMGB2 from nucleus to cytoplasm and extracellular milieu” value is recorded as “the translocation was suppressed by ICM”. In test [7], the “LPS-induced phosphorylation and acetylation of HMGB2 and HMGB1” value is “the post-translational modification was suppressed by ICM”. In test [8], the “LPS-mediated microglial activation (Iba-1+ cell number)” value is listed as “effectively blocked LPS-mediated microglial activation in all the brain parts”. Moreover, the “HMGB2 levels in cerebrospinal fluid and serum” value in test [9] (ELISA, FIG. 24) is “effectively suppressed the release of HMGB2 into body fluids”. Moreover, in [9] (FIG. 21), the “microglial activation in spinal cords (anti-Iba-1 staining)” value was “clearly suppressed by ICM treatment”. Besides, the “mRNA levels of proinflammatory cytokines and chemokines in microglia” value in test [9] (RT-PCR, microglial cells from brain of EAE mice, FIG. 23) is given as “decreased in the ICM-treated group”. For the same compound, the “mean clinical score (0-5 scale)” value in test [9] (days after MOG immunization, FIG. 20) is given as “reduced with ICM treatment”. Further, in test [9] (immunofluorescence, FIG. 25), the “HMGB1 or HMGB2 levels in spinal cord sections” value is listed as “effectively reduced the EAE-induced increase of HMGB1 or HMGB2 levels”. Also, in test [9] (immunofluorescence, FIG. 26), the “MAP-2 levels in ventral horn and ventral column” value is listed as “effectively recovered by ICM administration”. Also, in test [9] (lumbar spinal cord, 15 days after EAE induction, FIG. 22), the “inflammatory lesions in spinal cords (H&E staining)” value is “substantially attenuated by ICM treatment”. For the same compound, the “demyelination (anti-MBP staining)” value in test [9] (spinal cord sections, FIG. 27) is “suppresses the demyelination in the EAE model”.
